Like-named read-outs stand apart in the source and are kept apart here.
Assays:
NCM-460 cell line = experiment: cells; details: for concentration affecting cell viability: NCM-460, after 24 h
Method: (§1) Briefly, cells were firstly seeded, in triplicate, into 96-well culture plates at 10^4 cells/well. […] Ethanol 99.5% was used to solubilize essential oils. The final concentration of ethanol in the cell medium was kept lower than 0.1%. Ethanol 0.1% was added to the control (untreated) cells.
(§2) The cytotoxicity of the essential oil single components was evaluated by MTT assay on 96-well plates. After 24, 48 and 72 h, MTT (dissolved in PBS) was diluted with fresh medium at final concentration of 0.5 mg/mL, added to cell culture and incubated at 37 °C. After 4 h, the medium was removed and 100 μL of DMSO was added. After 1 h at room temperature, the purple formazan crystals were dissolved, and the plates were read in a microplate reader (Victor3™, Perkin Elmer, Waltham, MA, USA). Absorbance was measured at 595 nm. Cell growth inhibition rate was calculated as a percentage of treated cells on control ones.

Caco-2 cell line = experiment: cells; design: effect on cell growth, MTT: dose or concentration left out as unconfirmed; details: for IC50: Caco-2, MTT
Method: as §1, §2

SW-620 cell line = experiment: MTT cell viability assay, SW-620; details: for IC50: SW-620, MTT
Method: Briefly, cells were firstly seeded, in triplicate, into 96-well culture plates at 10^4 cells/well. […] The final concentration of ethanol in the cell medium was kept lower than 0.1%. Ethanol 0.1% was added to the control (untreated) cells.
as §2

NCM-460 cells [1] = experiment: Cell cycle analysis (propidium iodide, flow cytometry), NCM-460; format: cell-based, human; details: NCM-460, 72 h; 75 µM cinnamaldehyde, 800 µM eugenol; vs control
Method: (§3) Cell cycle analysis and apoptosis detection assay were only performed in cell treated with cinnamaldehyde and eugenol, at dosages that were not found toxic on the NCM-460 cell line. Briefly, 100,000 cells were seeded into 6-well cultured plates and allowed to attach for 24 h. After that, cells were treated for 72 h as previously described. Then, the cells were collected for the cell cycle analysis, washed twice with PBS, fixed with 70% ethanol, and incubated at −20 °C overnight. Then, the cells were washed with 500 µL of PBS, centrifuged at 1500 rpm for 5 min, resuspended in 500 μL of PBS containing 50 μg/mL RNase A and incubated for 30 min at room temperature. Cells were then centrifuged at 1500 rpm for 5 min, resuspended in PBS, and 10 µg/mL of Propidium iodide was added. Detection of apoptotic cells was performed with Annexin V/Propidium iodide detection kit, following the manufacturer’s instructions (Bender Medsystems, Wien, Austria). Cells were analyzed by flow cytometry (FACS) (Cytoflex, Beckman Coulter, CA, USA).

Caco-2 cells [2] = experiment: Cell cycle analysis (propidium iodide, flow cytometry), Caco-2; format: cell-based, human; details: Caco-2, 72 h; 75 µM cinnamaldehyde, 800 µM eugenol; vs control
Method: as §3

SW-620 cells [3] = experiment: Cell cycle analysis (propidium iodide, flow cytometry), SW-620; format: cell-based, human; details: SW-620, 72 h; 75 µM cinnamaldehyde, 800 µM eugenol; vs control
Method: as §3

Caco-2 cells [4] = experiment: in vitro; format: cell-based, human; details: for cell death, Annexin V/PI: Caco-2, 72 h, 800 µM eugenol, 75 µM cinnamaldehyde
Method: as §3

NCM-460 cells [5] = experiment: in vitro; format: cell-based, human; details: NCM-460, 72 h; 800 µM eugenol, 75 µM cinnamaldehyde
Method: as §3

SW-620 cells [6] = experiment: in vitro; format: cell-based, human; details: for Q2-UL cells (upper left quadrant, necrosis): SW620, 72 h, eugenol 800 µM (E800), cinnamaldehyde 75 µM (A75); for cell death, Annexin V/PI: SW-620, 72 h, 800 µM eugenol, 75 µM cinnamaldehyde
Method: as §3

in vitro = format: cell-based, human; details: human, eugenol 800 µM (E800), cinnamaldehyde 75 µM (A75), read-out: Q2-LL cells (lower left, viable, AnnexinV −/PI −)
Method: as §3

Caco-2 cells [7] = details: viability of Caco-2 cells; cited from earlier work
[8] = Homo sapiens, Caco-2, 24 h, 24 h
[9] = Homo sapiens, Caco-2, 72 h, 72 h
[10] = Homo sapiens, SW-620, 24 h, 24 h
[11] = Homo sapiens, SW-620, 72 h, 72 h
[12] = Caco2, 72 h, eugenol 800 µM (E800), cinnamaldehyde 75 µM (A75)

Compound	IC50 (Caco-2 cell line; 24 h) [µM]	IC50 (Caco-2 cell line; 72 h) [µM]	IC50 (Caco-2 cell line; [8]) [µM]	IC50 (Caco-2 cell line; [9]) [µM]	Selectivity Index (Caco-2 cell line; IC50 NCM460 / IC50 Caco2, 24 h)	Selectivity Index (Caco-2 cell line; IC50 NCM460 / IC50 Caco2, 72 h)	IC50 (SW-620 cell line; [10]) [µM]	IC50 (SW-620 cell line; [11]) [µM]	Selectivity Index (SW-620 cell line; IC50 NCM460 / IC50 SW620, 24 h)	Selectivity Index (SW-620 cell line; IC50 NCM460 / IC50 SW620, 72 h)	IC50 (SW-620 cell line; 24 h) [µM]	IC50 (SW-620 cell line; 72 h) [µM]	effect on cell cycle progression (NCM-460 cells [1])	effect on cell cycle progression (Caco-2 cells [2])	effect on cell cycle progression (SW-620 cells [3])	cell death, Annexin V/PI (Caco-2 cells [4])	cell death, Annexin V/PI (NCM-460 cells [5])	Q2-UL cells (upper left quadrant, necrosis) (SW-620 cells [6]) [%]	cell death, Annexin V/PI (SW-620 cells [6])	concentration affecting cell viability (NCM-460 cell line) [µM]	also measured
O=C/C=C/c1ccccc1 [cinnamaldehyde]	166	86.9	166	87	1.31	0.96	92	92	2.37	0.9	92	92.1	did not find differences	reduction of G2 phase	G1 accumulation	both late apoptosis and necrosis were detected	did not induce	15.98	both late apoptosis and necrosis were detected	–	IC50 (NCM-460 cell line; Homo sapiens, NCM460, 24 h, NCM-460, MTT, 24 h): 218 µM; IC50 (NCM-460 cell line; Homo sapiens, NCM460, 72 h, NCM-460, MTT, 72 h): 83 µM; IC50 (NCM-460 cell line; NCM-460, MTT, 24 h): 218 µM; IC50 (NCM-460 cell line; NCM-460, MTT, 72 h): 83.2 µM; effect on viability, MTT (Caco-2 cell line; Caco-2, 75 (µg/mL in the source), 48 and 72 h): reduced viability; effect on viability, MTT (SW-620 cell line; SW-620, 75 (µg/mL in the source), any timepoint): reduced viability
C=C1CC/C=C(\C)CC[C@@H]2[C@@H]1CC2(C)C [β-caryophyllene]	–	–	–	–	–	–	–	–	–	–	–	–	–	–	–	–	–	–	–	–	effect on viability, MTT (NCM-460 cell line; NCM-460, 240 and 360 µM at 24 h and 120–260 µM at 72 h): affected the viability; effect on cell growth, MTT (Caco-2 cell line; Caco-2): increased cell growth; effect on viability, MTT (SW-620 cell line; SW-620, 260 µM at 24, 48 and 72 h): affected the viability
CC(C)=CCC/C(C)=C/CO [Geraniol]	–	–	–	–	–	–	–	–	–	–	–	–	–	–	–	–	–	–	–	–	effect on cell proliferation, MTT (NCM-460 cell line; NCM-460, 100–800 µM, 48–72 h): increase cell proliferation; effect on cell proliferation, MTT (Caco-2 cell line; Caco-2, 100–800 µM, 72 h): increase cell proliferation; cytotoxic effect, MTT (Caco-2 cell line; human, 72 h, 1000 µM): not on the Caco-2 cells
C=CCc1ccc(O)c(OC)c1 [eugenol]	485	730	458	730	2.82	1.60	918	866	1.49	1.34	918	866	did not find differences	reduction of G2 phase	G1 accumulation	both late apoptosis and necrosis were detected	did not induce	17.12	both late apoptosis and necrosis were detected	–	IC50 (NCM-460 cell line; Homo sapiens, NCM460, 24 h): 1370 µM; IC50 (NCM-460 cell line; Homo sapiens, NCM460, 72 h): 1160 µM; effect on cell proliferation, MTT (NCM-460 cell line; NCM-460, lower doses from 100 to 400 µM): seemed to stimulate; effect on cell proliferation, MTT (Caco-2 cell line; Caco-2, lower doses from 100 to 400 µM): seemed to stimulate; viability at 72 h (in vitro; Caco2, 72 h): 67.5%; viability at 72 h (in vitro; NCM460, 72 h): 95.4%; viability at 72 h (in vitro; SW620, 72 h): 81.3%; Q2-UL cells (upper left quadrant, necrosis) (Caco-2 cells [4]; [12]): 25.95%; Q2-UR cells (upper right quadrant, late apoptosis) (Caco-2 cells [4]; [12]): 5.55%
Cc1ccc(C(C)C)c(O)c1 [thymol]	–	–	–	–	–	–	–	–	–	–	–	–	–	–	–	–	–	–	–	165	cytotoxic effect, MTT (SW-620 cell line; SW-620, 660 and 1320 µM): cytotoxic effect was also detectable; toxic concentration (SW-620 cell line; SW-620, after 24 h): 660 µM; IC50 (Caco-2 cells [7]): 700 µM
Cc1ccc(C(C)C)cc1O [carvacrol]	–	–	–	–	–	–	–	–	–	–	–	–	–	–	–	–	–	–	–	500	effect on viability, MTT (Caco-2 cell line; Caco-2, same range of concentrations used by Llana-Ruiz-Cabello and co-workers [19]): reduced Caco-2 cell viability; toxicity, MTT (SW-620 cell line; SW-620, 24 and 48 h, up to the maximum tested concentration of 750 μM): no toxicity; cytotoxic effect, MTT (SW-620 cell line; SW-620, 250, 500 and 750 µM, only after 72 h): modest statistically significant toxicity
